Patent publication US20250066337A1, “Amorphous Form of (S)-2-(5-((3-Ethoxypyridin-2-YL)Oxy)Pyridin-3-YL)-N-(Tetrahydrofuran-3-YL)Pyrimidine-5-Carboxamide” (Pfizer Inc., priority 2021, published 2025)

Target: hDGAT2 (Homo sapiens (Human), UniProt Q96PD7)
Assay: In vitro DGAT2 assay, determination of IC50 values
Format: biochemical
Settings: geometric mean; hDGAT2 membrane fraction, [1-14C]decanoyl-CoA and 1,2-didecanoyl-sn-glycerol substrates
Protocol: For the expression of hDGAT2, SF9 cells (20 L) grown in Sf900II media were infected with hDGAT2 baculovirus at a multiplicity of infection of 1 in a Wave Bioreactor System 20/50P wave bag (GE Healthcare). After 40 hours of infection, the cells were then harvested by centrifugation at 5,000×g. The cell pellets were washed by resuspending in phosphate buffered saline (PBS) and collected by centrifugation at 5,000×g. The cell paste was flash frozen in liquid N2 and stored at −80° C. until needed. All operations below were at 4° C. unless otherwise noted. The cells were resuspended in lysis buffer (50 mM Tris-HCl, pH 8.0, 250 mM sucrose) including 1 mM ethylenediaminetetraacetic acid (EDTA) and the complete protease inhibitor cocktail (Roche Diagnostics) at a ratio of 3 ml buffer per 1 g cell paste. The cells were lysed by dounce homogenizer. The cell debris was removed by centrifugation at 1,000×g for 20 min, and the supernatant was centrifuged at 100,000×g for 1 hour. […]
For determination of IC50 values, the reactions were carried out in 384-well white Polyplates (Perkin Elmer) in a total volume of 20 μL. […] Plates were centrifuged at 2,000×g for 1 minute in an Allegra 6R Centrifuge (Beckman Coulter) and then were sealed again with fresh covers before reading in a 1450 Microbeta Wallac Trilux Scintillation Counter (Perkin Elmer).

Chain of hDGAT2 (Q96PD7 whole entry): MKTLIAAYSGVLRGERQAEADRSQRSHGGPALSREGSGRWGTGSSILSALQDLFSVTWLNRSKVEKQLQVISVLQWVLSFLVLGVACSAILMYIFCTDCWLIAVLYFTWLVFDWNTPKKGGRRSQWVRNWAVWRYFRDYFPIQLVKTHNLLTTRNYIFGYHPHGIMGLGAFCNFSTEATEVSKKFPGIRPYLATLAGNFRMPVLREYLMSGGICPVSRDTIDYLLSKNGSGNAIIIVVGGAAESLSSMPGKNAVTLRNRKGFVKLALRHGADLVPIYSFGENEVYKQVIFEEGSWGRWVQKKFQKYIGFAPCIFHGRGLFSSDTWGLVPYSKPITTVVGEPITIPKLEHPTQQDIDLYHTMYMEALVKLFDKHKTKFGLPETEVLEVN

Compound: CCOc1cccnc1Oc1cncc(-c2ncc(C(=O)N[C@H]3CCOC3)cn2)c1 [Example 1, (S)-2-(5-((3-ethoxypyridin-2-yl)oxy)pyridin-3-yl)-N-(tetrahydrofuran-3-yl)pyrimidine-5-carboxamide]
- IC50: 17.2 nM
